Entries after “also recorded” stand apart in the source; their conditions may differ.

Data set [1] concerns PC12 cells. Briefly: NGF-induced neurite outgrowth assay in PC12 cells. The format is cell-based. The note with it: for effect on percentage of differentiated PC12 cells, co-administration with PRE-084: 0.25 μM and 2.5 μM with 10 μM PRE-084, vs PRE-084; for effect on NGF-induced neurite outgrowth, compound alone: 0.25 μM and 2.5 μM, vs NGF. As to the method:
At 80% confluence, the cells were either split to allow a further culture expansion or plated onto 48-well flat-bottom plates previously coated with poly-L-ornithine (Sigma Aldrich, Milan, Italy) at the final concentration of 10 μg/cm^2. The cells were plated at low density (2500 cells/well) to allow proper neurite elongation. The PC12 cells were mechanically detached from the flask to avoid cell-surface receptor cleavage and to preserve the correct binding of NGF to the TrkA receptors. To minimize detachment stress, the cells were left in PM for 24 h to recover. […] PRE-084 (10 µM), an S1R agonist, was used to verify that the effects of the selected compounds were due to the S1R modulation. In CTR conditions, the cells were incubated with the drug vehicle. For all the ligands, two replicates per concentration were performed in at least 3 experiments with different PC12 batches.
After 72 h incubation in DM, the cells were fixed with a 4% paraformaldehyde solution (pH 7.4). To allow the neurite visualization with a bright-field microscope, the cells were stained with the Harris Hematoxylin solution (Sigma Aldrich). After staining, images of six fields per well were acquired with a digital camera linked to a bright-field inverted microscope (Optika) (20× magnification). […] Only the cells bearing a neurite as long as their soma’s diameter were identified as differentiated cells. The number of differentiated cells was expressed as the percentage of differentiated cells over the total number of cells.

In data set [2] the test system is MRC-5 (human normal lung fibroblasts). Briefly: MTS cytotoxicity assay, MRC-5. The class given is cell-based. As to the method: (§1) The early toxicity assays included in vitro cytotoxicity against two human cell lines, namely MRC-5 (human normal lung fibroblasts) and CHME-5 (human microglial cells) and an in vivo zebrafish model. The cell lines MRC-5 and CHME-5 were exposed for 24, 48, and 72 h to increasing concentrations of the tested compounds (from 0.1 to 100 µM).
(§2) A CellTiter 96® AQueous One Solution Cell Proliferation Assay (Promega, Milan, Italy) was used on cells seeded onto a 96-well plate at a density of 9 × 10^3 cells per well. The effect of the test compound was evaluated at four different concentrations (0.1, 1, 10, and 100 μM) after 24 h of continued exposure. Two independent experiments were performed for each concentration. The optical density (OD) of the treated and untreated cells was determined at a wavelength of 490 nm using a plate reader. The data were elaborated with the GraphPad Prism 5 program.

Data set [3] deals with CHME-5 (human microglial cells). Briefly: MTS cytotoxicity assay, CHME-5. The class given is cell-based. The note with it: for cell survival: CHME-5, 100 μM, all time points. As to the method:
as §1, §2
Background: Tetrazolium dyes change colour on reduction, which living cells bring about.

In data set [4] the test system is zebrafish embryos. Briefly: In vivo toxicity in zebrafish embryos. Further details: species or system zebrafish (Danio rerio). The note with it: 5 dpf; for embryo phenotype: 0.1 μM and 1 μM; for morphological score: score 5 normal to 0.5 absent; for embryo death at the highest dose: 100 μM. Here is the method:
The in vivo toxicity was evaluated using the predictive zebrafish animal model, which is suitable for screening drugs for potential toxicity in the nervous, cardiovascular, and digestive system. Zebrafish embryos were exposed to increasing concentrations (from 0.1 to 100 μM) of compounds (R/S)-1c and (R/S)-1d immediately after the eggs’ fertilization. The mortality rate and the kind of developmental deficiencies were evaluated at 5 days post-fertilization (dpf). […] A decrease in the embryo vitality rate and an increase in the entity of damages to the vital structures became more evident at higher concentrations (Figure 7A, Table S2). Compound (R/S)-1c induced embryo death (100% of embryos) at 10 μM, whereas (R/S)-1d caused the death of 5 embryos out of 10 at the same concentration. Moreover, among the living embryos, morphological abnormalities, mainly affecting the shape of the tail, heart, and skin pigmentation, were observed (Figure 7B–E, Table S2). […] Furthermore, the swim bladder was not well inflated, and oedema was evident.
The Tg(GFAP:GFP) zebrafish (Danio rerio) were a kind gift from the Department of Biology, University of Padova (Italy), and were maintained in a re-circulatory system at 28 °C in a light/dark cycle of 14/10 h. They were fed three times a day with dry food and Artemia. The zebrafish embryos and larvae were used for the experiments until 5 days post-fertilization (dpf); mating between 2 females and 1 male was set up the day before the test. The eggs were preserved from predation by adult fish using a plastic separator in the tanks. The eggs were collected right after spawning and used in the teratogenicity experiments. The zebrafish husbandry procedures were performed according to the Directive 2010/63/EU and in compliance with the local animal welfare regulations (authorization n. prot. 18,311/2016; released by the “Comune di Meldola”, 9 November 2016).
The toxicity evaluation was performed as previously reported. Briefly, the eggs were collected, rinsed out with embryo medium (for 1 L of distilled water: 0.1 g sodium bicarbonate, 0.1 g instant ocean, 0.19 g calcium sulphate) and put in different Petri dishes with the same medium; only the unscathed embryos were selected. Generally, 8 embryos per untreated control and treatment concentrations were cultured. The eggs were treated with an increasing concentration of (R/S)-1c and (R/S)-1d, starting from 1 h post-fertilization. They were incubated at 28 °C for about 5 days (without changing the media) in order to allow exposure to the compounds throughout all development stages. The teratogenic effects were evaluated after 5 days from treatment with morphological and viability observations. The experiment was performed in octuplicate, and the data were assessed using a sample score sheet, as reported by Brannen KC and colleagues.

Data set [5] concerns HeLa cells. Nature of the data set: AQP-mediated osmotic water permeability assay (stopped-flow light scattering). The note with it: pre-treatment 20 μM, heat stress 42 °C 3 h. Here is the method:
As an orthogonal assay to determine the functional profile of our compounds, the effect on AQP-mediated water permeability was investigated. AQPs are a family of transmembrane proteins involved in the transport of water and other small molecules (e.g., H2O2) through cell membranes. AQP functions are thus critical in ensuring reactive oxygen species (ROS) scavenging and cell survival. […] Briefly, the osmotic water permeability of HeLa cells was measured by a stopped-flow light scattering method and expressed as a percentage of k relative.
Osmotic water permeability was measured in the HeLa cell suspension by the stopped-flow light scattering method, as previously described. The experiments were performed at 25 °C on the stopped-flow apparatus (RX2000, Applied Photophysics, Leatherhead, UK) with a pneumatic drive accessory (DA.1, Applied Photophysics) straightforwardly coupled with a Varian Cary 50 spectrometer (Varian Australia Pty Ltd., Mulgrave, Australia). Briefly, scattered light intensity with a dead time of 6 ms was recorded at a wavelength of 450 nm. […] To evaluate the effect of the test compounds on water permeability, the HeLa cells were divided into different groups: (1) controls, cells incubated at r.t. (21 °C) in the presence of the same volume of methanol as that of the treated cells; (2) heat-stressed cells, cells heat-treated in a water thermostatic and shacking bath at 42 °C for 3 h; (3) heat-stressed cells pre-treated with the test compounds at a 20 µM final concentration (dissolved in methanol).

Where [6] appears, read: MRC-5, concentrations ≤10 μM, 24, 48 and 72 h.
Where [7] appears, read: CHME-5, concentrations ≤10 μM, 24, 48 and 72 h.

Turning to `CN(CCC(CO)c1ccc(-c2ccccc2)cc1)Cc1ccccc1` (stereo not shown) [Compound 1c, 3-([1,1’-biphenyl]-4-yl)-N-benzyl-4-hydroxy-N-methylbutanamine], the “effect on percentage of differentiated PC12 cells, co-administration with PRE-084” value in data set [1] is “significantly reduced”. Moreover, in data set [1], the “effect on NGF-induced neurite outgrowth, compound alone” value is reported as “did not significantly enhance”. The cytotoxicity entry in data set [2] (MRC-5, 100 µM, 24 h of exposure) is “evident cytotoxic effects”; in data set [2] (setting [6]), “no cytotoxicity”; in data set [3] (CHME-5, 100 µM, 24 h of exposure), “evident cytotoxic effects”; in data set [3] (setting [7]), “no cytotoxicity”. In addition, in data set [3], the cell survival entry is “reduced the survival”. Further, in data set [4], the embryo phenotype result is “normal and vital phenotype”. In addition, in data set [4] (0.1 μM), the morphological score is given as less than 4. The embryo death in data set [4] (10 μM) was 100 % of embryos. In addition, the “embryo death at the highest dose” value in data set [4] was “death of all the zebrafish embryos”. In addition, the “effect on water permeability in heat-stressed HeLa cells” value in data set [5] is “in line with that of S1R antagonists”.
Regarding `OCC(CCN1CCCCC1)c1ccc(-c2ccccc2)cc1` (stereo not shown) [Compound 1d, 2-([1,1’-biphenyl]-4-yl)-4-(piperidin-1-yl)butan-1-ol], the “effect on percentage of differentiated PC12 cells, co-administration with PRE-084” value in data set [1] (listed as (R/S)-1d) is “significantly reduced; also recorded: most effective”. For the same compound, the “effect on NGF-induced neurite outgrowth, compound alone” value in data set [1] is “did not significantly enhance”. For the same compound, the cytotoxicity entry is listed as “no significative cytotoxicity” in data set [2] (MRC-5, 100 µM, 24 and 48 h of exposure); “no cytotoxicity” in data set [2] (setting [6]); “no significative cytotoxicity” in data set [3] (CHME-5, 100 µM, 24 and 48 h of exposure); “no cytotoxicity” in data set [3] (setting [7]). Further, the survival rate entry in data set [2] (MRC-5, 100 µM, 72 h) is recorded as “higher than 50%”; in data set [3] (CHME-5, 100 µM, 72 h), “higher than 50%”. In addition, the cell survival result in data set [3] is given as “reduced the survival”. In addition, the embryo phenotype result in data set [4] was “normal and vital phenotype”. Besides, the morphological score was determined as 5 in data set [4] (0.1 μM), 4 in data set [4] (1 μM) and 1 in data set [4] (10 μM). The death of embryos in data set [4] (10 μM) is on record as 5 embryos out of 10. Also, in data set [4], the “embryo death at the highest dose” value is on record as “death of all the zebrafish embryos”. For the same compound, the “effect on water permeability in heat-stressed HeLa cells” value in data set [5] is given as “in line with that of S1R antagonists”.

The values above are taken from article PMC10386076, “Discovery of RC-752, a Novel Sigma-1 Receptor Antagonist with Antinociceptive Activity: A Promising Tool for Fighting Neuropathic Pain” (Pharmaceuticals, 2023).
